In ChEMBL document CHEMBL5154925, “Design and Optimization of Thienopyrimidine Derivatives as Potent and Selective PI3Kδ Inhibitors for the Treatment of B-Cell Malignancies” (J Med Chem, 2022):
pIC50: −log10 of the molar value. Activity calls are given as the source filed them. The calls are words filed in the database; no cut-off is given here.

How the values were obtained:
[1] = test system: Pfeiffer; assay: Antitumour activity against human Pfeiffer cells xenografted in nude mouse assessed as reduction in Ki67 expression in tumor at 5 mg/kg, ip BID for 21 days by immunohistochemical analysis; assay type: functional, organism-based; details: time 21.0 day
[2] = target: T1, Phosphatidylinositol 4,5-bisphosphate 3-kinase catalytic subunit delta isoform (Homo sapiens, UniProt O00329); assay: Inhibition of PI3Kdelta (unknown origin) using PIP2 as substrate measured after 1 hr in presence of ATP by ADP-glo luminescence assay
T1 sequence (O00329 whole entry): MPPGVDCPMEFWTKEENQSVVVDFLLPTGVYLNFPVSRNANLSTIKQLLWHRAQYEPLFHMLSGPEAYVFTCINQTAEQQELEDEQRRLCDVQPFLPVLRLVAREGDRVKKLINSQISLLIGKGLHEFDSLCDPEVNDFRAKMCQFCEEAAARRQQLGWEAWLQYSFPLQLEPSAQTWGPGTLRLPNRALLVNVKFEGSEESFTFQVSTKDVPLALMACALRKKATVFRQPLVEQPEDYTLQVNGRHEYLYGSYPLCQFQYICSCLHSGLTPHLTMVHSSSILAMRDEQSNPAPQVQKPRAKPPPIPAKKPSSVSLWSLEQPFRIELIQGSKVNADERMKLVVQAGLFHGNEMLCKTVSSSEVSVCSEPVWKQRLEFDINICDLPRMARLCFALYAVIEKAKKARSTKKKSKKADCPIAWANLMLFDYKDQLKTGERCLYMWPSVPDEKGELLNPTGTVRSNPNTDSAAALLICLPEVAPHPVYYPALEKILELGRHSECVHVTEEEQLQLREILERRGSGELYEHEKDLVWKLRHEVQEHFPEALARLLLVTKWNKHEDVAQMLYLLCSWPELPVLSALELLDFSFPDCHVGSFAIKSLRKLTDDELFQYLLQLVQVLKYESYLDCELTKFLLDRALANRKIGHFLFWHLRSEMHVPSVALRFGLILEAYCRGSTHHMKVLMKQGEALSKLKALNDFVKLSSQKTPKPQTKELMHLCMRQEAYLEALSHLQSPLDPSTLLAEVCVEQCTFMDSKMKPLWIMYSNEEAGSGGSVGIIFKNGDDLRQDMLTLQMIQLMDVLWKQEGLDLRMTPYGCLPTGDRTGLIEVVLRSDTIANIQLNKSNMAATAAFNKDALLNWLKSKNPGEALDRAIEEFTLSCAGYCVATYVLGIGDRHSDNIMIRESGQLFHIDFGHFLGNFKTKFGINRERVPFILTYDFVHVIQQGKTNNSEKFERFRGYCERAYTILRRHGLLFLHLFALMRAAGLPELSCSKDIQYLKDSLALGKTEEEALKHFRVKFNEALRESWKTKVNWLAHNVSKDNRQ

[3] = target: Phosphatidylinositol 4,5-bisphosphate 3-kinase catalytic subunit beta isoform (Homo sapiens, UniProt P42338); assay: Inhibition of PI3Kbeta (unknown origin) using PIP2 as substrate measured after 1 hr in presence of ATP by ADP-glo luminescence assay
[4] = target: T1, Phosphatidylinositol 4,5-bisphosphate 3-kinase catalytic subunit delta isoform; assay: Inhibition of PI3Kdelta in IgM stimulated human Raji cells incubated for 10 mins by AlphaLISA assay; assay type: cell-based
[5] = target: Phosphatidylinositol 4,5-bisphosphate 3-kinase catalytic subunit gamma isoform (Mus musculus, UniProt Q9JHG7); assay: Inhibition of PI3Kgamma in C5a stimulated mouse RAW264.7 cells incubated for 10 mins by AlphaLisa assay; assay type: cell-based
[6] = test system: DOHH-2; assay: Antiproliferative activity against human DOHH-2 cells assessed as cell growth inhibition incubated for 96 hrs by cell titer glo assay; assay type: functional, cell-based; details: DOHH-2, 96 h
[7] = test system: Pfeiffer; assay: Antiproliferative activity against human Pfeiffer cells assessed as cell growth inhibition incubated for 96 hrs by cell titer glo assay; assay type: functional, cell-based
[8] = test system: SUD4; assay: Antiproliferative activity against human SU-DHL-4 cells assessed as cell growth inhibition incubated for 96 hrs by cell titer glo assay; assay type: functional, cell-based; details: SU-DHL-4, 96 h
[9] = test system: Pfeiffer; assay: Induction of cell cycle arrest in human Pfeiffer cells assessed as accumulation at G0/G1 phase at 2 to 50 uM after 24 hrs by propidium iodide and RNAase staining based flow cytometric analysis; assay type: functional; details: dose 2-50 µM
[10] = test system: Pfeiffer; assay: Induction of apoptosis in human Pfeiffer cells assessed as early apoptotic cells at 2 uM incubated for 48 hrs by annexin V-FITC staining based flow cytometry (reference value: 4.16 %); assay type: functional
[11] = test system: Pfeiffer; assay: Induction of apoptosis in human Pfeiffer cells assessed as late apoptotic cells at 2 uM incubated for 48 hrs by annexin V-FITC staining based flow cytometry (reference value: 7.87 %); assay type: functional
[12] = test system: Pfeiffer; assay: Induction of apoptosis in human Pfeiffer cells assessed as viable […] cells at 10 uM incubated for 48 hrs by annexin V-FITC staining based flow cytometry (reference value: 81.14 %); assay type: functional
[13] = test system: Pfeiffer; assay: Induction of apoptosis in human Pfeiffer cells assessed as necrotic cells at 10 uM incubated for 48 hrs by annexin V-FITC staining based flow cytometry (reference value: 6.62 %); assay type: functional
[14] = test system: SU-DHL-6; assay: Induction of apoptosis in human SU-DHL-6 cells assessed as apoptotic rate at 50 uM incubated for 48 hrs by annexin V-FITC staining based flow cytometry; assay type: functional
[15] = test system: Pfeiffer; assay: Inhibition of P13K signaling pathway in human Pfeiffer cells assessed as reduction in AKT phosphorylation at S473 residue incubated for 4 hrs by Western blot analysis; assay type: cell-based; details: dose 2-50 µM, DDE = dose-dependent effect
[16] = test system: Pfeiffer; assay: Inhibition of P13K signaling pathway in human Pfeiffer cells assessed as reduction in […] incubated for 4 hrs by Western blot analysis; assay type: cell-based; details: dose 2-50 µM, DDE = dose-dependent effect
[17] = test system: B-cell; assay: Inhibition of PI3Kdelta dependent mouse B-cell activation assessed as reduction in ratio of CD86 and B220 level at 0.001 to 0.1 uM stimulated with IgM for 1 hr prior to compound addition and measured after 24 hrs by flow cytometry analysis; assay type: functional, cell-based; details: dose 0.001-0.1 µM, time 25.0 hrs
[18] = test system: Pfeiffer; assay: Antitumor activity against human Pfeiffer cells xenografted in nude mouse assessed as tumor growth inhibition at 75 mg/kg, po BID for 21 days and measured twice weekly; assay type: functional; details: 504 h, time 21 day, read-out: TGI
[19] = test system: Mus musculus; assay: In vivo inhibition of PI3K signalling in human Pfeiffer cells xenografted in nude mouse assessed as reduction in Akt phosphorylation at Ser473 at 5 mg/kg, ip by Western blotting analysis; assay type: functional, organism-based
[20] = test system: Mus musculus; assay: In vivo inhibition of PI3K signalling in human Pfeiffer cells xenografted in nude mouse assessed as reduction in Akt phosphorylation at Ser473 at 75 mg/kg, po by Western blotting analysis; assay type: functional, organism-based
[21] = Tmax in ICR mouse at 30 mg/kg, po measured upto 24 hrs by LC-MS/MS analysis; assay type: ADME, organism-based; details: in vivo
[22] = Cmax in ICR mouse at 30 mg/kg, po measured upto 24 hrs by LC-MS/MS analysis; assay type: ADME, organism-based; set-up: time < 24 hrs, dose 30 mg/kg, route po; details: in vivo
[23] = AUC (0 to t) in ICR mouse at 30 mg/kg, po measured upto 24 hrs by LC-MS/MS analysis; assay type: ADME, organism-based; set-up: time < 24 hrs, dose 30 mg/kg, route po; details: in vivo
[24] = AUC (0 to infinity) in ICR mouse at 3 mg/kg, iv measured upto 24 hrs by LC-MS/MS analysis; assay type: ADME, organism-based; set-up: time < 24 hrs, dose 3 mg/kg, route iv; details: in vivo
[25] = Half life in ICR mouse at 30 mg/kg, po measured upto 24 hrs by LC-MS/MS analysis; assay type: ADME, organism-based; details: in vivo

Chain of Phosphatidylinositol 4,5-bisphosphate 3-kinase catalytic subunit gamma isoform (Q9JHG7 whole entry, canonical isoform): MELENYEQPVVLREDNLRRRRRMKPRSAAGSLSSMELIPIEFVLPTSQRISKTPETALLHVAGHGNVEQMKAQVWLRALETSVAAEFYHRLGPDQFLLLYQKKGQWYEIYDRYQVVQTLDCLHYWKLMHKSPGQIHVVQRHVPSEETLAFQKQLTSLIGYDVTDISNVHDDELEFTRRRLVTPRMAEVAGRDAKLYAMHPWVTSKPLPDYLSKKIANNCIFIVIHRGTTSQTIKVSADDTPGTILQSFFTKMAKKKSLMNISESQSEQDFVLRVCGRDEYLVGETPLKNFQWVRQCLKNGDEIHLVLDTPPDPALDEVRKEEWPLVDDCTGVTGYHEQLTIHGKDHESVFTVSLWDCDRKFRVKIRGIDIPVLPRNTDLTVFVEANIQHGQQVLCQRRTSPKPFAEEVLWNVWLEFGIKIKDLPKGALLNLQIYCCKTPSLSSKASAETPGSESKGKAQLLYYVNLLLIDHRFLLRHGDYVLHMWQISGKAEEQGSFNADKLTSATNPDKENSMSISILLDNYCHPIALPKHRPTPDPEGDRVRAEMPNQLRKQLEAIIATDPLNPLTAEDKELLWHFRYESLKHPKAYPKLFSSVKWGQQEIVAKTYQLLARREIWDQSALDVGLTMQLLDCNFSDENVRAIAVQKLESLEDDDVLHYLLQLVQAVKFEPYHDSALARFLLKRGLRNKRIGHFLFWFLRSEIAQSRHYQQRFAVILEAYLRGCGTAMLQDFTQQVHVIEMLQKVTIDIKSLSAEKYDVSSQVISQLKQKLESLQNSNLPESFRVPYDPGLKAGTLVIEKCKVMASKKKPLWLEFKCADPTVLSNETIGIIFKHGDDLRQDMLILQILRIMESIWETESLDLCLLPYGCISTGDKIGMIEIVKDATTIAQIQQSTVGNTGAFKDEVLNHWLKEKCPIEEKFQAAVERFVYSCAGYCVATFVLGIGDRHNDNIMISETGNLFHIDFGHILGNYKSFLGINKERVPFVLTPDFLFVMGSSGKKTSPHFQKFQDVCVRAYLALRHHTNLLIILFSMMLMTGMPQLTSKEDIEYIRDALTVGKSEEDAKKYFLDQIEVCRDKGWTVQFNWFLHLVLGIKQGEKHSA
Chain of Phosphatidylinositol 4,5-bisphosphate 3-kinase catalytic subunit beta isoform (P42338 whole entry, canonical isoform): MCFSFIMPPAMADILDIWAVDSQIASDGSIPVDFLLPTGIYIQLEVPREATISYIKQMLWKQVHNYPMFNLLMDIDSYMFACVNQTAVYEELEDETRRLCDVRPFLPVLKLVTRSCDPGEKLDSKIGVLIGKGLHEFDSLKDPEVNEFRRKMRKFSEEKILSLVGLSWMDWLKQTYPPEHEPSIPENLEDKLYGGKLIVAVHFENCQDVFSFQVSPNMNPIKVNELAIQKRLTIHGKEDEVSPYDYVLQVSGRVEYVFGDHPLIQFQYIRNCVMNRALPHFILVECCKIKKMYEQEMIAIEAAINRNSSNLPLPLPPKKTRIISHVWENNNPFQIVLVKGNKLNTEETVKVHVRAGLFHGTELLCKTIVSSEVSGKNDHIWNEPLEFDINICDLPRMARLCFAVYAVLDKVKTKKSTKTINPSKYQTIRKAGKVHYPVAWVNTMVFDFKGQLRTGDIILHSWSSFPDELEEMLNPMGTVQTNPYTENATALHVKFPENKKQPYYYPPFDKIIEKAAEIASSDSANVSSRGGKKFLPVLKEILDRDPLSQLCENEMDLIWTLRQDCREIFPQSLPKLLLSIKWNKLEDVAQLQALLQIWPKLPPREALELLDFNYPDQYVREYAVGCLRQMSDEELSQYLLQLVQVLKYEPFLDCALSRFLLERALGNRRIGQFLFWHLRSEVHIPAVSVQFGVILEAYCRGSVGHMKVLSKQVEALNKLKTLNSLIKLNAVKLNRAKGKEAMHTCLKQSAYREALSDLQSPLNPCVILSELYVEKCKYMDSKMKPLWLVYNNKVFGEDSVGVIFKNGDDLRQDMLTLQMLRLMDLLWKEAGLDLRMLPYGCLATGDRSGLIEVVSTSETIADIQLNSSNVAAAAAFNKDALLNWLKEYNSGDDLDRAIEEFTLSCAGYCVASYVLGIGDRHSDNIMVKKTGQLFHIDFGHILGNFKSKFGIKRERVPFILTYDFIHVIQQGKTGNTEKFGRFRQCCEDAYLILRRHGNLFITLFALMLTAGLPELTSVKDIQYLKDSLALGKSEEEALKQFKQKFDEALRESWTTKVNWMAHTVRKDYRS

With CCC(=O)N1CC[C@H](Nc2ncnc3sc(-c4cnc(OC)c(OC)c4)cc23)C1 the Activity [1] was “Active”, the pIC50 [2] was 8.24 and the pIC50 [3] was 6.01. The pIC50 [4] was 6.86, the pIC50 [5] was 5.09 and the pIC50 [6] was 4.98. The pIC50 [7] was 6.24, the pIC50 [8] was 5.43 and the Activity [9] was “Active”. The Activity [10] was 6.03%, the Activity [11] was 12.63% and the Activity [12] was 65.34%. For the same compound, the Activity [13] was 6.72%, the Activity [14] was over 50% and the inhibition [15] was “Dde”. The inhibition [16] was “Dde”, the inhibition [17] was “Active” and the inhibition in vivo at 75 mg/kg [18] was 65.5%. The inhibition [19] was “Active”, the inhibition [20] was “Active” and the Tmax [21] was 1.5 h. The Cmax [22] was 372 ng/mL, the AUC(0-t) at 24 h [23] was 1030 ng·h/mL and the AUC(0-inf) [24] was 1370 ng·h/mL. The half-life [25] was 0.89 h.
